Assay [1] concerns the target T1, cystic fibrosis transmembrane conductance regulator (CFTR) (Homo sapiens, UniProt P13569).
T1 construct: human CFTR expressed in FRT cells
Nature of the assay: YFP fluorescence and Ussing chamber short-circuit current in FRT-hCFTR cells, […]. The assay is classed as cell-based.

The target of the next assay is T2, Anoctamin1 (ANO1) (Homo sapiens, UniProt Q5XXA6).
T2 construct: human ANO1 expressed in FRT cells (YFP assay, Ussing chamber) and HEK293 cells (patch clamp)
T2 sequence (Q5XXA6 1-986): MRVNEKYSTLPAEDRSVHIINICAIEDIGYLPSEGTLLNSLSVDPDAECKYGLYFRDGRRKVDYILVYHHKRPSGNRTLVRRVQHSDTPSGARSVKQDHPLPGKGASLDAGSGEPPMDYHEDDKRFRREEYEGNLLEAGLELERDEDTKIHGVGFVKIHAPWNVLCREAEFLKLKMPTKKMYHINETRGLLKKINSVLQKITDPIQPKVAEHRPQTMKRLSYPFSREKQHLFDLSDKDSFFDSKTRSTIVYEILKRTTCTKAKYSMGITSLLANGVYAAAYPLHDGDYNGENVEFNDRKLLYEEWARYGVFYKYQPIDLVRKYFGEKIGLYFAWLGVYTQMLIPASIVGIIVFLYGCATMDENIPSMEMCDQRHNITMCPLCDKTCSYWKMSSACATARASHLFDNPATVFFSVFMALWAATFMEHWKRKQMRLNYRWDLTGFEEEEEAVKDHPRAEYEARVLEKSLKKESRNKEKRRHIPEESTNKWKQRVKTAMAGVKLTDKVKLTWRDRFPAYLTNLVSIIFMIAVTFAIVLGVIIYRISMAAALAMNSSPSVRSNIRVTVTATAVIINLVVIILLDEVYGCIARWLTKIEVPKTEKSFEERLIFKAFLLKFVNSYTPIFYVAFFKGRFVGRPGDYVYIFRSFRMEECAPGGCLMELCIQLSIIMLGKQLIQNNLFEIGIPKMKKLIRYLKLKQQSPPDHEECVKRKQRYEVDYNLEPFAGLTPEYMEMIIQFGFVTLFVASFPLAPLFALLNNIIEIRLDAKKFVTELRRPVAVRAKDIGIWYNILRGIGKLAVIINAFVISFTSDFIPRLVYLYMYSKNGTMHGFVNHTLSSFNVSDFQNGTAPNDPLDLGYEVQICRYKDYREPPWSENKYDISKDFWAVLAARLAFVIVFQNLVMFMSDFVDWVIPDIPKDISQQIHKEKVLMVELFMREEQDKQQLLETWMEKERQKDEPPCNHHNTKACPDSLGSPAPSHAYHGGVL
In words: YFP quenching assay in FRT-ANO1 cells; short-circuit current; whole-cell patch clamp in HEK293. The assay is classed as cell-based.

T1 sequence (P13569 whole entry): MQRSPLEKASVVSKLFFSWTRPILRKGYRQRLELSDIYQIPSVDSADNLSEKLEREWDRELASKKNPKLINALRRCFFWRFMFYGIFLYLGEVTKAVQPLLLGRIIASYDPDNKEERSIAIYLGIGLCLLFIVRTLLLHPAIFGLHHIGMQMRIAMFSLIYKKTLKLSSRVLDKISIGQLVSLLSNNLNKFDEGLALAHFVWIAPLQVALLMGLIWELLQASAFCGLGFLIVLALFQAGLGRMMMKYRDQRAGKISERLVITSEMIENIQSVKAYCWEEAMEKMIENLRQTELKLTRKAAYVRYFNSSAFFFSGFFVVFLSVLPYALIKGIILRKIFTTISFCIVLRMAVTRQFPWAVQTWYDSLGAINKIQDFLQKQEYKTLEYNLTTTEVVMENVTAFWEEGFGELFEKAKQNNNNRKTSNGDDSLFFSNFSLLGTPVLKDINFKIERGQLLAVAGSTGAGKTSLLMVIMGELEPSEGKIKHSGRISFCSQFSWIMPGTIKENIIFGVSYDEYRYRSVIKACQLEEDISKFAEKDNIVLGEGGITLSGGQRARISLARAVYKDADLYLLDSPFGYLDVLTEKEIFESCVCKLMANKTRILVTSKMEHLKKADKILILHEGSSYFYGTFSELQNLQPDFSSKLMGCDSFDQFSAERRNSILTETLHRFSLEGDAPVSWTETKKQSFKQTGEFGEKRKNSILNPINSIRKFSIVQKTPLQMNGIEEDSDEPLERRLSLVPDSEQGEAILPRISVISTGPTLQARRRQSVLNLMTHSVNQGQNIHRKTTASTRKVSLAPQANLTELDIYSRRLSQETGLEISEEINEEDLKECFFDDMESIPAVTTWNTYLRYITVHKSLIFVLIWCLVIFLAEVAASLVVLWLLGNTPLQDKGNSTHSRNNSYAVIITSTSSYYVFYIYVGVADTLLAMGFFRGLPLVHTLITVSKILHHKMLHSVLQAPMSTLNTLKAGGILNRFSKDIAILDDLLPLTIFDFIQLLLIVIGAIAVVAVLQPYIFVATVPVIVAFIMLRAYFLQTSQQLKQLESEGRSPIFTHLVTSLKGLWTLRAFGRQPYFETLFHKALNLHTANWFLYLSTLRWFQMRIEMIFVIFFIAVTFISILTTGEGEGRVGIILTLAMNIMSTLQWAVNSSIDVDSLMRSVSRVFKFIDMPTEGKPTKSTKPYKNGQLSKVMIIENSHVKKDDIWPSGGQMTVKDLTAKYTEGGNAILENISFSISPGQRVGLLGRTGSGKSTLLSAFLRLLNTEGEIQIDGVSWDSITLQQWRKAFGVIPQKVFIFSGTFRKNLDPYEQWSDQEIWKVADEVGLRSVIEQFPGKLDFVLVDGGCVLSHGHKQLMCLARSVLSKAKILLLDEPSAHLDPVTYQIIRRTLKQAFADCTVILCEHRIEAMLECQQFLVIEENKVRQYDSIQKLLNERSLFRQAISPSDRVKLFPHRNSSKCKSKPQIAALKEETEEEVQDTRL

For the molecule `O=C(O)c1ccc(/C=C2\SC(=S)N(c3cccc(C(F)(F)F)c3)C2=O)cc1` [CFTRinh-172], in assay [1], the “YFP fluorescence and Ussing chamber short-circuit current in FRT-hCFTR cells, 10” value was “forskolin-induced CFTR activity was inhibited by CFTRinh172 (a known CFTR channel inhibitor)”.

Molecule `CC/C(=C(/CC)c1ccc(O)cc1)c1ccc(O)cc1` [DES, diethylstilbestrol] came in with an IC50 against Anoctamin1 (ANO1) of 6.58 µM.

By IC50 is commonly meant the concentration needed to halve the response being measured. Lower therefore signals greater potency in that assay.

(Values after publication PMC8269135, “Diethylstilbestrol, a Novel ANO1 Inhibitor, Exerts an Anticancer Effect on Non-Small Cell Lung Cancer via Inhibition of ANO1” (International Journal of Molecular Sciences, 2021).)
